Source: US8604087B2, “Composition for treating or preventing amyloid-related diseases comprising 4-O-methylhonokiol” (priority 2008, dated 2013)

Tests used:
[1] = test system: scopolamine-induced impairment of memory of mice; experiment: Passive avoidance test for evaluating explicit memory; assay type: in vivo; conditions: for Improvement: step-through latency
Description: In order to test the effect of 4-O-methylhonokiol on the scopolamine-induced impairment of memory of mice, experiment was performed as follows based on the passive avoidance test animal model described in the literature [Korea Health Research Association, Guidelines for the Testing of Functional Health Foods, 663-701, 2004; Rho et al., Biol. Pharm. Bull., 2005].
A passive avoidance instrument consisting of two chambers separated by a guillotine door was used as the experimental apparatus. One chamber was an illuminated chamber made of transparent acryl boards (30×30×30 cm) and the other was a dark chamber made of black acryl boards (same dimensions). The floor of the dark chamber was equipped with a grid made of aluminum pieces separated by a regular spacing. The grid was connected to an apparatus for delivering electric shocks to the feet of the test animal. A mouse was put into the illuminated chamber and the guillotine door was opened so that the mouse could enter the dark chamber. The acquisition trials were repeated 3 times. On the third run, immediately after the mouse entered the dark chamber, an electric shock was delivered through the aluminum grid (0.1 mA, 5 seconds). Memory test was performed 24 hours after the acquisition trials. The mouse was put into the illuminated chamber, the guillotine door was opened, and the time taken for the mouse to enter the dark chamber was measured (step-through latency). A longer time means better learning ability and memory. 10 mice were tested for each group.

[2] = target: acetylcholinesterase (Homo sapiens, UniProt P22303); experiment: Inhibition of acetylcholinesterase activity by honokiol and 4-O-methylhonokiol (modified Ellman's method); assay type: biochemical; conditions: for IC50: 5 minutes of reaction at 25° C., pH 8.0; for inhibition at 0.01 µM: concentration 10 nM; for inhibition at 0.1 µM: concentration 100 nM
Sequence of acetylcholinesterase (P22303 32-614, species assumed): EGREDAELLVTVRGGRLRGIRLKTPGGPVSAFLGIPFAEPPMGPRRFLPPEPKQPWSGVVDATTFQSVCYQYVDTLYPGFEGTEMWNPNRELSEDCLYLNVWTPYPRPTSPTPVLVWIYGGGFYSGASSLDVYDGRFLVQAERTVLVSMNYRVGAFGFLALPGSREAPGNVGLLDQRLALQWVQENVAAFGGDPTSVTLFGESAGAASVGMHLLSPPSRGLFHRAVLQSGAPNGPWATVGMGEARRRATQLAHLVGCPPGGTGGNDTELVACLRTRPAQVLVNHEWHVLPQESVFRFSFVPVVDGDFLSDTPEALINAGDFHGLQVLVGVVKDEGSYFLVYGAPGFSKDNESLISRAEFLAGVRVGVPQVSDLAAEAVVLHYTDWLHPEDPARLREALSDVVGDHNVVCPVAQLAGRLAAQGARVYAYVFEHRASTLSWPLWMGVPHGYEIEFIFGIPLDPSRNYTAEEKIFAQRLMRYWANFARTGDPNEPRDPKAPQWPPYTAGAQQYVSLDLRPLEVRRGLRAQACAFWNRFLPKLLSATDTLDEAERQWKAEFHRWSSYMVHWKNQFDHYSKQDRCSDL
Description: Acetylcholinesterase activity was analyzed by the modified Ellman's method [Ellman G. L., et al., Biochem. Pharmacol. 7, 88-95, 1961]. After adding 50 mM phosphate buffer (30 μL, pH 8.0) to a 96-well plate, different concentrations of 4-O-methylhonokiol or honokiol was added, 10 μL per well, and acetylcholinesterase was added, 10 μL per well. Then, 50 mM phosphate buffer (50 μL, pH 8.0) containing 0.5 mM acetylthiocholine iodide and 1 mM 5,5′-dithiobis(2-nitrobenzoic acid) was added as a substrate for the enzyme. After 5 minutes of reaction at 25° C., absorbance was measured at 412 nm. The inhibition of acetylcholinesterase activity was calculated by the following equation. Measurement was made 3 times. Inhibition of acetylcholinesterase activity (%)=[…]
ODb: absorbance of untreated reaction solution at 412 nm;
ODs: absorbance of treated reaction solution at 412 nm; and
ODc: absorbance of control at 412 nm.

[3] = target: T1, Acetylcholinesterase (Mus musculus, UniProt P21836); experiment: Acetylcholinesterase activity in mouse brain cortex and hippocampus after the behavioral experiments (modified Ellman's method); assay type: in vivo; parameters: Enzyme activity: unit not given beside the values; conditions: for Improvement: enzyme activity
T1 construct: the brain cortex and hippocampus were separated from the brain of the mouse, homogenized with RO-PREP protein extraction solution; from tissue; host or cells: mouse brain cortex and hippocampus
T1 sequence (P21836 32-614): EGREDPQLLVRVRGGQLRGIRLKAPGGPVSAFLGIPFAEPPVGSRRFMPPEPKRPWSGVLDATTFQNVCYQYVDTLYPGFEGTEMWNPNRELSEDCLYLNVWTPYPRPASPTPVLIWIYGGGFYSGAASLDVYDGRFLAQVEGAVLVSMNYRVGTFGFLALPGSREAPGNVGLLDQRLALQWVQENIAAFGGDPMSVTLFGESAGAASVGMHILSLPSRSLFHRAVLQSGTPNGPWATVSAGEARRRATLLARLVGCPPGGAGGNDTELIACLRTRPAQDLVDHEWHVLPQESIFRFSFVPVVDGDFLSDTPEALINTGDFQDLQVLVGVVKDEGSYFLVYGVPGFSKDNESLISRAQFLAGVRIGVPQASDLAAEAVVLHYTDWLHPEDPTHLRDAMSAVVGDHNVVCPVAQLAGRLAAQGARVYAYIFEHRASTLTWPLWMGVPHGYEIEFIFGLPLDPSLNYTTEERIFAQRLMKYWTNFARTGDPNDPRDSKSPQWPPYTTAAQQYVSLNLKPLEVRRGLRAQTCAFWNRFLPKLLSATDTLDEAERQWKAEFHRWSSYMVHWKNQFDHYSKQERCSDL
Description: (§1) After the behavioral pharmacological experiments, the brain cortex and hippocampus were separated from the brain of the mouse, homogenized with RO-PREP protein extraction solution (iNtRON Biotechnology), and centrifuged at 4° C., at 15,000 rpm, for 2 hours. The protein quantity of the supernatant was analyzed with a Bio-Rad protein analysis kit (Bio-Rad). Acetylcholinesterase activity was analyzed by the modified Ellman's method.
Cell lysate was put in a 96-well plate, 10 μL per well. After adding reaction buffer [190 μL, 0.01% DTNB, 0.02% acetylthiocholine and 0.1 mM isoOMPA in 50 mM Tris-HCl (pH 8.0, 0.1 M NaCl, 20 mM MgCl2)], measurement was made at 37° C., at 405 nm, for 5 minutes. After 10 minutes of reaction, measurement was made again at the same wavelength. After adding different concentrations of acetylcholinesterase and treating with standard buffer [0.01% DTNB and 0.02% 0.1 mM isoOMPA in 50 mM Tris-HCl (pH 8.0, 0.1 M NaCl, 20 mM MgCl2)], measurement was made at 37° C., at 405 nm, for 5 minutes. Activity was calculated from the difference of absorbance at the first and second measurements.

[4] = test system: scopolamine-induced impairment of learning ability of mice; experiment: Water maze test for evaluating spatial learning ability; assay type: in vivo, male ICR mice; conditions: for Improvement: escape distance
Description: In order to test the effect of 4-O-methylhonokiol on the scopolamine-induced impairment of learning ability of mice, experiment was performed as follows based on the water maze test animal model described in the literature [Korea Health Research Association, Guidelines for the Testing of Functional Health Foods, 663-701, 2004; Widy-Tyszkiewicz et al., Biol. Pharm. Bull., 2002]. 5-6 weeks old male ICR mice (20-28 g; Dae Han Biolink, Korea) were raised under controlled lighting (12-hour light-dark cycle) and temperature (22±2° C.) conditions. They were grouped (n=10) and given free access to food and water, in a cage. The mice were accustomed for a week before performing the test.
A round pool 180 cm in diameter and 50 cm in height was filled with water (22±3° C.) to 30 cm in depth. A transparent acryl resin platform (diameter 12 cm) was placed 1.5 cm below the surface of the water. The mice were trained for 6 days, 180 seconds a day (acquisition test). On day 7, retention test was carried out. The mice were forced to swim for 60 seconds by removing the platform. All the behaviors of the mice were recorded using a video camera. Time and distance were measured until the mice climbed onto the platform.
4-O-methylhonokiol (0.5, 1 and 1.5 mg/kg) was dissolved in drinking water and orally administered to the mice, for a week. The comparison group was treated with scopolamine only, and the control group was not treated with any substance.

[5] = test system: Amyloid-β 1-42; experiment: Inhibition of amyloid-β 1-42 production in mouse brain cortex and hippocampus (amyloid beta 1-42 assay kit); assay type: in vivo; conditions: for Improvement: production amount
Description: as §1, with “solution,” for “solution (iNtRON Biotechnology),”, “Amyloid-β 1-42 were quantitated using an amyloid beta 1-42 assay kit (Immuno-Biological, Japan).” for “Acetylcholinesterase activity was analyzed by the modified Ellman's method.”
The protein extract (100 μL) obtained from the brain cortex or hippocampus was put in a coated 96-well plate and incubated at 4° C. overnight. After washing with washing buffer and adding labeled antibody solution, the mixture was incubated at 4° C. for 1 hour in the dark. After washing again and adding chromogen, the mixture was incubated at room temperature for 30 minutes in the dark. Then, after adding stop solution, absorbance was measured at 450 nm. Measurement was made 3 times.

[6] = scopolamine 1 mg/kg + 4-O-methylhonokiol 0.5 mg/kg
[7] = scopolamine 1 mg/kg + 4-O-methylhonokiol 1 mg/kg
[8] = scopolamine 1 mg/kg + 4-O-methylhonokiol 1.5 mg/kg
[9] = brain cortex, scopolamine 1 mg/kg + 4-O-methylhonokiol 0.5 mg/kg
[10] = brain cortex, scopolamine 1 mg/kg + 4-O-methylhonokiol 1 mg/kg
[11] = brain cortex, scopolamine 1 mg/kg + 4-O-methylhonokiol 1.5 mg/kg
[12] = hippocampus, scopolamine 1 mg/kg + 4-O-methylhonokiol 0.5 mg/kg
[13] = hippocampus, scopolamine 1 mg/kg + 4-O-methylhonokiol 1 mg/kg
[14] = hippocampus, scopolamine 1 mg/kg + 4-O-methylhonokiol 1.5 mg/kg

Compound C=CCc1ccc(O)c(-c2ccc(OC)c(CC=C)c2)c1 [4-O-methylhonokiol] has a Step-through latency ([1]; scopolamine 1 mg/kg + 4-O-methylhonokiol 0.5 mg/kg, 24 hours after acquisition trials) of 21.9 s, a Step-through latency ([1]; scopolamine 1 mg/kg + 4-O-methylhonokiol 1 mg/kg, 24 hours after acquisition trials) of 28.3 s and a Step-through latency ([1]; scopolamine 1 mg/kg + 4-O-methylhonokiol 1.5 mg/kg, 24 hours after acquisition trials) of 33.5 s. For the same compound, the Improvement [1, 6] was 37.1%, the Improvement [1, 7] was 70% and the Improvement [1, 8] was 95%. It also gave an IC50 [2] of 1.2 nM, an inhibition at 0.001 µM ([2]; concentration 1 nM) of 47% and an inhibition at 0.01 µM [2] of 68%. For the same compound, the inhibition at 0.1 µM [2] was 78%, the “times better inhibition ability of acetylcholinesterase activity than honokiol” value ([2]; ratio of IC50 values) was “about 200 times” and the Enzyme activity [3, 9] was 30.2. For the same compound, the Enzyme activity [3, 10] was 24.1, the Enzyme activity [3, 11] was 19.1 and the Improvement [3, 9] was 42.8%. For the same compound, the Improvement [3, 10] was 70.3%, the Improvement [3, 11] was 92.8% and the Improvement [3, 12] was 72.7%. The Improvement [3, 13] was 93.2%, the Improvement [3, 14] was 97.7% and the Enzyme activity [3, 12] was 14.1. For the same compound, the Enzyme activity [3, 13] was 13.2, the Enzyme activity [3, 14] was 13 and the Improvement [4, 6] was 48.8%. It also gave an Improvement [4, 7] of 88.6%, an Improvement [4, 8] of 91.8% and an Escape distance ([4]; scopolamine 1 mg/kg + 4-O-methylhonokiol 0.5 mg/kg oral in drinking water for a week, mice) of 566 cm. It also gave an Escape distance ([4]; scopolamine 1 mg/kg + 4-O-methylhonokiol 1 mg/kg oral in drinking water for a week, mice) of 305 cm, an Escape distance ([4]; scopolamine 1 mg/kg + 4-O-methylhonokiol 1.5 mg/kg oral in drinking water for a week, mice) of 284 cm and a Production amount ([5]; amyloid-β 1-42, brain cortex, β-amyloid 1 mg/kg + 4-O-methylhonokiol 0.5 mg/kg) of 26.8. It also gave a Production amount ([5]; amyloid-β 1-42, brain cortex, β-amyloid 1 mg/kg + 4-O-methylhonokiol 1 mg/kg) of 24.3, a Production amount ([5]; amyloid-β 1-42, brain cortex, β-amyloid 1 mg/kg + 4-O-methylhonokiol 1.5 mg/kg) of 23.1 and a Production amount ([5]; amyloid-β 1-42, hippocampus, β-amyloid 1 mg/kg + 4-O-methylhonokiol 0.5 mg/kg) of 22.7. For the same compound, the Production amount ([5]; amyloid-β 1-42, hippocampus, β-amyloid 1 mg/kg + 4-O-methylhonokiol 1 mg/kg) was 18.2, the Production amount ([5]; amyloid-β 1-42, hippocampus, β-amyloid 1 mg/kg + 4-O-methylhonokiol 1.5 mg/kg) was 16.5 and the Improvement ([5]; brain cortex, β-amyloid 1 mg/kg + 4-O-methylhonokiol 0.5 mg/kg) was 28.3%. The Improvement ([5]; brain cortex, β-amyloid 1 mg/kg + 4-O-methylhonokiol 1 mg/kg) was 82.6%, the Improvement ([5]; brain cortex, β-amyloid 1 mg/kg + 4-O-methylhonokiol 1.5 mg/kg) was 100% and the Improvement ([5]; hippocampus, β-amyloid 1 mg/kg + 4-O-methylhonokiol 0.5 mg/kg) was 33.3%. The Improvement ([5]; hippocampus, β-amyloid 1 mg/kg + 4-O-methylhonokiol 1 mg/kg) was 77.8% and the Improvement ([5]; hippocampus, β-amyloid 1 mg/kg + 4-O-methylhonokiol 1.5 mg/kg) was 95.6%.

For C=CCc1ccc(O)c(-c2ccc(O)c(CC=C)c2)c1 [Honokiol], the IC50 [2] was 250 nM, the inhibition at 0.01 µM [2] was 17% and the inhibition at 0.1 µM [2] was 43%. It also gave an inhibition at 1 µM ([2]; concentration 1000 nM) of 74%.

Work on CN1[C@@H]2C[C@@H](OC(=O)[C@H](CO)c3ccccc3)C[C@H]1[C@@H]1O[C@@H]12 [scopolamine, Scopolamine, reference compound] yielded a Step-through latency ([1]; comparison group, scopolamine 1 mg/kg only (control group 34.3)) of 14.6 s and an Escape distance ([4]; comparison group, scopolamine 1 mg/kg only (control group 232)) of 884 cm.

Work on β-amyloid [reference compound] yielded a Production amount ([5]; amyloid-β 1-42, brain cortex, comparison group, β-amyloid 1 mg/kg only (control group 23.5)) of 28.1 and a Production amount ([5]; amyloid-β 1-42, hippocampus, comparison group, β-amyloid 1 mg/kg only (control group 16.2)) of 25.1.
